“Also recorded” adds a separate entry of the source.

The subject of this test is target microorganisms. The experiment in a line: Screen of synthesized peptides for binding to target microorganisms (targeting peptides, Tables 2 and 3). The conditions noted are these: microorganism(s) the targeting peptide was identified as binding to (Table 3). As to the method: Once noted, these peptides were batch synthesized on a multiplex peptide synthesizer, yielding 5-10 mg of each peptide that could readily be screened for biological activity (e.g., binding activity and/or antimicrobial activity.
Other suitable targeting peptides include the peptides that have been identified as binding to particular target organisms as shown in Table 3 and/or Table 4.
Turning to “1T-134 (SRLVREIKKKCRKS; synthetic novel tartgeting peptide IT-134)”, the “Target(s)” value is reported as “A. naeslundii, F. nucleatum,; also recorded: P. gingivalis; also recorded: S. epidermidis,; also recorded: S. gordonii, S. mitis, S. mutans,; also recorded: S. oralis, S. salivarious,; also recorded: S. sanguinis”.

On to “1T-119 (SPATQKAPTRAQPSRAPVQDCGDGRPTAAPDDVERLSPR; synthetic novel tartgeting peptide IT-119)”, for which the “Target(s)” value is given as “S. gordonii, S. mitis, S. mutans,; also recorded: S. oralis”.

Consider “1T-124 (LFDERNKIA; synthetic novel tartgeting peptide IT-124)”, for which the “Target(s)” value is recorded as “S. mitis, S. mutans, S. oralis”.

As to “1T-137 (PLNFYRAVKENRLPLSEKNINDFTNIKLKVSPKLINLLQESSIFYNFSPKKRNTN; synthetic novel tartgeting peptide IT-137)”, the “Target(s)” value is listed as “A. naeslundii, F. nucleatum,; also recorded: P. gingivalis; also recorded: S. epidermidis,; also recorded: S. gordonii, S. mitis, S. mutans,; also recorded: S. oralis, S. salivarious,; also recorded: S. sanguinis”.

Consider “1T-87 (EAVGQDLVDAHHP; synthetic novel tartgeting peptide IT-87)”, for which the “Target(s)” value is “S. mitis, S. mutans, S. oralis”.

For the substance “1T-104 (RAVAAHLQGRHHGHQVRRQRHGQR; synthetic novel tartgeting peptide IT-104)”, the “Target(s)” value is reported as “S. mitis”.

Take “1T-169 (FARVRRLHQNRILTQPLTNLKYCLRQPIYSD; synthetic novel tartgeting peptide IT-169)”: the “Target(s)” value is “A. naeslundii, F. nucleatum,; also recorded: P. gingivalis; also recorded: S. epidermidis,; also recorded: S. gordonii, S. mitis, S. mutans,; also recorded: S. oralis, S. salivarious,; also recorded: S. sanguinis”.

Take “1T-78 (FFKTIFVLILGALGVAAGLYIEKNYIDK; synthetic novel tartgeting peptide IT-78)”: the “Target(s)” value is recorded as “S. pneumoniae”.

For the substance “1T-51 (GKPKRMPAEFIDGYGQALLAGA; synthetic novel tartgeting peptide IT-51)”, the “Target(s)” value was “S. aureus; also recorded: P. aeruginosa”.

Take “1T-38 (VMFVLTRGRSPRPMIPAY; synthetic novel tartgeting peptide IT-38)”: the “Target(s)” value is “S. mutans; also recorded: S. aereus; also recorded: S. epidermidis; also recorded: C. jeikeium; also recorded: C. xerosis; also recorded: C. striatum; also recorded: P. aeruginosa”.

With “1T-138 (YPNEYCIFLENLSLEELKEIKAINGETLNLEEIINERKNLKD; synthetic novel tartgeting peptide IT-138)”, the “Target(s)” value is “A. naeslundii, F. nucleatum,; also recorded: P. gingivalis; also recorded: S. epidermidis,; also recorded: S. gordonii, S. mitis, S. mutans,; also recorded: S. oralis, S. salivarious,; also recorded: S. sanguinis”.

Consider “1T-156 (GRFQISIRGEEKSKVKVQGKGTFTDRNTT; synthetic novel tartgeting peptide IT-156)”, for which the “Target(s)” value is “A. naeslundii, F. nucleatum,; also recorded: P. gingivalis,; also recorded: T. denticolaS. gordonii,; also recorded: S. mitis, S. mutans, S. oralis,; also recorded: S. salivarious, S. sanguinis”.

Take “1T-45 (WTKPSFTDLRLGFEVTLYFANR; synthetic novel tartgeting peptide IT-45)”: the “Target(s)” value is given as “S. aureus; also recorded: S. epidermidis; also recorded: C. striatum; also recorded: P. aeruginosa”.

Take “1T-18 (YSKTLHFAD; synthetic novel tartgeting peptide IT-18)”: the “Target(s)” value is listed as “S. aureus; also recorded: S. epidermidis; also recorded: C. striatum; also recorded: P. aeruginosa”.

As for “1T-164 (KKSHSQGKRKLKDLNSAYKIDNQLHYALR; synthetic novel tartgeting peptide IT-164)”, the “Target(s)” value is “A. naeslundii, F. nucleatum,; also recorded: P. gingivalis; also recorded: S. epidermidis,; also recorded: S. gordonii, S. mitis, S. mutans,; also recorded: S. oralis, S. salivarious,; also recorded: S. sanguinis”.

In the case of “1T-20 (PALVDLSNKEAVWAVLDDHS; synthetic novel tartgeting peptide IT-20)”, the “Target(s)” value is on record as “S. mutans; also recorded: P. aeruginosa”.

As for “1T-30 (GKAKPYQVRQVLRAVDKLETRRKKGGR; synthetic novel tartgeting peptide IT-30)”, the “Target(s)” value was “S. aureus; also recorded: S. epidermidis; also recorded: C. xerosis; also recorded: C. striatum; also recorded: P. aeruginosa”.

With “1T-71 (KIDTNQWPPNKEG; synthetic novel tartgeting peptide IT-71)”, the “Target(s)” value is “P. aeruginosa”.

For the substance “1T-141 (KKFIILLFILVQGLIFSATKTLSDIIAL; synthetic novel tartgeting peptide IT-141)”, the “Target(s)” value was “F. nucleatum, P. gingivalis; also recorded: S. epidermidis,; also recorded: S. gordonii, S. mitis, S. mutans,; also recorded: S. oralis, S. sanguinis”.

For “1T-22 (VPLDDGTRRPEVARNRDKDRED; synthetic novel tartgeting peptide IT-22)”, the “Target(s)” value is reported as “S. epidermidis; also recorded: P. aeruginosa”.

Consider “1T-74 (DIDWGRKISCAAGVAYGAIDGCATTV; synthetic novel tartgeting peptide IT-74)”, for which the “Target(s)” value was “S. pneumoniae”.

“1T-89 (HEDDKRRGMSVEVLGFEVVQHEE; synthetic novel tartgeting peptide IT-89)”: the “Target(s)” value is reported as “S. mitis, S. mutans”.

As to “1T-118 (TASPPAPSDQGLRTAFPATLLIALAALARISR; synthetic novel tartgeting peptide IT-118)”, the “Target(s)” value was “A. naeslundii, F. nucleatum,; also recorded: P. gingivalis; also recorded: S. epidermidis,; also recorded: S. gordonii, S. mitis, S. mutans,; also recorded: S. oralis, S. salivarious,; also recorded: S. sanguinis”.

As for “1T-146 (RNSADNQTKIDKIRIDISLWDEHLNIVKQGK; synthetic novel tartgeting peptide IT-146)”, the “Target(s)” value is recorded as “A. naeslundii, F. nucleatum,; also recorded: P. gingivalis,; also recorded: T. denticolaS. gordonii,; also recorded: S. mitis, S. mutans, S. oralis,; also recorded: S. salivarious, S. sanguinis”.

With “1T-26 (LTILPTTFFAIIVPILAVAFIAYSGFKIKGIVEHKDQW; synthetic novel tartgeting peptide IT-26)”, the “Target(s)” value is given as “jeikeium; also recorded: C. xerosis; also recorded: C. striatum; also recorded: P. aeruginosa; also recorded: S. mutans; also recorded: S. aureus; also recorded: S. epidermidis; also recorded: Corynebacterium”.

In the case of “1T-127 (YDPVPKRKNKNSEGKREE; synthetic novel tartgeting peptide IT-127)”, the “Target(s)” value is reported as “A. naeslundii, F. nucleatum,; also recorded: P. gingivalis,; also recorded: T. denticolaS. gordonii,; also recorded: S. mitis, S. mutans, S. oralis,; also recorded: S. salivarious, S. sanguinis”.

Turning to “1T-91 (TSVRPGAAGAAVPAGAAGAAGAGWRWP; synthetic novel tartgeting peptide IT-91)”, the “Target(s)” value was “S. mitis, S. mutans, S. oralis,; also recorded: S. sanguinis”.

Consider “1T-116 (MILHRRRDR; synthetic novel tartgeting peptide IT-116)”, for which the “Target(s)” value is listed as “A. naeslundii, P. gingivalis; also recorded: S. epidermidis,; also recorded: S. gordonii, S. mitis, S. mutans,; also recorded: S. oralis, S. salivarious,; also recorded: S. sanguinis”.

“1T-13 (FRSPCINNNSLQPPGVYPAR; synthetic novel tartgeting peptide IT-13)”: the “Target(s)” value was “S. aureus; also recorded: S. epidermidis; also recorded: P. aeruginosa”.

(Values after patent US8389679B2, “Targeted antimicrobial moieties” (priority 2009, dated 2013).)
